SMILES strings stand for the structures. ≈ marks a conversion by molar mass, not a printed value.

In assay [1] the target is T1, HIV reverse transcriptase (Human immunodeficiency virus type 1 group M subtype B, UniProt P04585).
T1 construct: The RT enzyme (cloned from HIV in E. coli); purchased HT-Biotechnology LTD, Cambridge, UK; host or cells: E. coli
In words: Inhibition of HIV reverse transcriptase (scintillation proximity assay, SPA). The class given is biochemical. The conditions noted are these: RT-SPA; RT enzyme cloned from HIV in E. coli; 60 min (37° C.). The procedure: Investigation of the substances for inhibition of HIV reverse transcriptase
The reverse transcriptase (RT) activity was determined by means of a scintillation proximity assay (SPA). The reagent kit for the RT-SPA was purchased from Amersham/Buchler (Braunschweig). The RT enzyme (cloned from HIV in E. coli) originated from HT-Biotechnology LTD, Cambridge, UK.
The assay was carried out according to the method manual of the manufacturer Amersham--with the following modifications:
Bovine serum albumin was added to the final concentration of 0.5 mg/ml to the assay buffer.
The assay was carried out in Eppendorf reaction vessels with a volume of 100 μl of mixture.
The RT concentrate from the manufacturer (5000 U/ml) was diluted to an activity of 15 U/ml in tris-HCl buffer 20 mM; pH 7.2; 30% glycerol.
The incubation time for the mixtures was 60 min (37° C.).
After stopping the reaction and "developing" with the bead suspension, 130 μl of mixture were transferred into 4.5 ml of tris-HCl buffer, 10 mM; pH 7.4; 0.15 M NaCl and the tritium activity was measured in a β-counter.
For a preliminary test of the inhibitory activity, the substances were dissolved in DMSO (stock solution c=1 mg/ml) and tested diluted 10^-1, 10^-2, 10^-3 etc. in DMSO.
To determine IC50 values, the inhibitor stock solutions were further diluted in tris-HCl buffer, 50 mM, pH 8 and tested in suitable concentrations.
The concentration appertaining to 50% enzyme inhibition was found from the graph of RT activity against the logarithm of the concentration of the particular test substance.
For orientation: Scintillation proximity formats need no separation of bound from free tracer.

For a further assay, the system named is HIV. In words: Tests on products against HIV in cell culture (T-cell culture assay, giant cell formation in infected lymphocytes). The class given is cell-based. The conditions noted are these: Human immunodeficiency virus 1, 72 h, lowest product concentration at which no giant cells occurred, 37° C., 3 days. The procedure:
Tests on products against HIV in cell culture
RPMI pH 6.8 Complete medium additionally contains 20% fetal calf serum and 40 IU/ml recombinant interleukin 2.
Lymphocytes isolated from fresh donor blood by means of ®Ficoll gradient centrifugation are cultivated in complete medium with the addition of 2 μg/ml phytohemagglutinin (Wellcome) at 37° C. under 5% CO2 for 36 h. The cells are, after addition of 10% DMSO, frozen at a cell density of 5×10^6 and stored in liquid nitrogen. For the test, the cells are thawed, washed in RPMI medium and cultivated in complete medium for 3-4 days.
The test products were dissolved in DMSO and adjusted with complete medium to a concentration of 1 mg/ml. 0.4 ml of medium was placed in 24-well dishes. After addition of 0.1 ml of the dissolved product to the upper row of the dish, a geometric dilution series was produced by transferring 0.1 ml each time. Product-free controls always received 0.4 ml of complete medium with 0.5% DMSO. Lymphocyte cultures with a cell count of 5×10^5 cells/ml were infected by adding 1/50 of the volume of supernatant from HIV-infected lymphocyte cultures. The titer of these culture supernatants was determined by endpoint dilution to be 1-5×10^6 infectious units/mi. After incubation at 37° C. for 30 min, the infected lymphocytes were spun down and taken up again in the same volume of medium. 0.6 ml portions of this cell suspension were placed in all the wells of the assay plate. The mixtures were incubated at 37° C. for 3 days.
The infected cell cultures were examined under the microscope for the presence of giant cells which indicate active virus replication in the culture. The lowest product concentration at which no giant cells occurred was determined as the HIV inhibitory concentration. As a control, the supernatants from the culture plates were examined for the presence of HIV antigen with the aid of an HIV antigen assay in accordance with the information from the manufacturer (Organon).

In assay [1], `C=C(C)OC(=O)N1c2nc(C)ccc2NC(=S)C1C` (racemic) [Example 20, (3RS)-4-(Isopropenyloxycarbonyl)-3,6-dimethyl-3,4-dihydro-1,4,5-triazanaphthalene-2(1H)-thione] yielded an IC50 of 3.61 to 36.1 µM.
In turn, `C[C@@H]1Nc2nc(Cl)ccc2NC1=O` [Example 2, (3S)-6-Chloro-3-methyl-3,4-dihydro-1,4,5-triazanaphthalen-2(1H)-one] gave an IC50 in assay [1] of 5.06 to 50.6 µM. Also, in the assay on HIV, the MIC is greater than 0.8 µg/mL.
`CC(C)OC(=O)N1c2ncccc2NC(=O)C1CS(C)(=O)=O` (stereo not drawn) [Example 41, 3-Methylsulfonylmethyl-4-isopropoxycarbonyl-3,4-dihydro-1,4,5-triazanaphthalen-2(1H)-one] yielded an MIC with HIV greater than 2 µg/mL.
`CSCC1C(=S)Nc2cccnc2N1C(=O)OC(C)C` (stereo not drawn) [Example 37, 4-Isopropoxycarbonyl-3-methylthiomethyl-3,4-dihydro-1,4,5-triazanaphthalene-2(1H)-thione]: the IC50 in assay [1] lay within 0.321 to 3.21 µM. The MIC against HIV is greater than 1 µg/mL.
In the same order, the values of `C=C(C)OC(=O)N1C(=O)[C@H](C)N(C(=O)OC(=C)C)c2nc(Cl)ccc21` [Example 10, (3S)-6-Chloro-1,4-his(isopropenyloxycarbonyl)-3-methyl-3,4-dihydro-1,4,5-triazanaphthalen-2(1H)-one] are 0.273 to 2.73 µM and 1 µg/mL (≈ 2.73 µM).
In the same order, the values of `C[C@H]1C(=O)Nc2ccc(Cl)nc2N1Cc1ccccn1` [Example 11, (3S)-6-Chloro-3-methyl-4-(2-picolyl)-3,4-dihydro-1,4,5-triazanaphthalen-2(1H)-one] are 0.346 to 3.46 µM and 0.2 µg/mL (≈ 0.693 µM).
In the case of `CC(C)=CCN1c2nc(Cl)ccc2NC(=O)[C@@H]1C` [Example 8, (3S)-6-Chloro-3-methyl-4-(3-methyl-2-butenyl)-3,4-dihydro-1,4,5-triazanaphthalen-2(1H)-one], in assay [1], the IC50 was in the range of 0.376 to 3.76 µM. This compound yielded an MIC with HIV of 0.08 µg/mL (≈ 0.301 µM).

One may read the IC50 as the concentration needed to halve the response being measured.

The values are drawn from US5424311A, “Azaquinoxalines and their use” (Hoeschst Aktiengesellschaft, priority 1992, dated 1995).
